# Measurements from PMC12557365 (Journal of Medicinal Chemistry, 2025).
# Values joined by “and” are separate entries in the source; they are usually repeats but may differ in a detail not shown here. Identical values can stand only once. “Also recorded” adds a separate entry of the source. Like-named read-outs stand apart in the source and are kept apart here.
# How the values were obtained:
# [1] = test system: SARS-CoV-2 hCoV-19/Japan/TY/WK-521 strain; assay: microbe, parasite or virus in culture; format: cell-based; settings: Severe acute respiratory syndrome coronavirus 2, HEK-293T, read-out: HEK 293T-AT EC50
# Human Caspase 2 = Human Caspase 2 (Homo sapiens, UniProt P42575); assay: biochemical
# Sequence of Human Caspase 2 (P42575 170-333): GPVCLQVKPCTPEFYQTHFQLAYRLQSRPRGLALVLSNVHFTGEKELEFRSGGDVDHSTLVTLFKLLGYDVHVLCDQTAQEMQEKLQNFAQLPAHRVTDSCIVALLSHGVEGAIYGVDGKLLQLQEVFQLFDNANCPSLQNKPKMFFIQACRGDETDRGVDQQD
# Sequence of Human Caspase 2 (P42575 348-452): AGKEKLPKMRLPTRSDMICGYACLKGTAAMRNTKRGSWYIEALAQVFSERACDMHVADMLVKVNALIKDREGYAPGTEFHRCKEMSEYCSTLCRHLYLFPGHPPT
# Human Chymotrypsin = format: biochemical
# Human Cathepsin B/D/G/L = format: biochemical
# Human Thrombin = Human Thrombin (Homo sapiens, UniProt P00734); assay: biochemical
# HIV-1 Protease = HIV-1 Protease (Human immunodeficiency virus type 1 group M subtype B, UniProt P04585); assay: biochemical
# SARS-CoV-2 = assay: microbe, parasite or virus in culture; format: cell-based; settings: Severe acute respiratory syndrome coronavirus 2, A549
# [2] = test system: SARS-CoV-2 Omicron strains; assay: microbe, parasite or virus in culture; format: cell-based; settings: Severe acute respiratory syndrome coronavirus 2, Epithelial cell
# [3] = test system: SARS-CoV-2 Gamma strain (hCoV-19/Japan/TY7-501/2021); assay: microbe, parasite or virus in culture; format: cell-based
# SARS-CoV [4] = assay: microbe, parasite or virus in culture; format: cell-based; settings: Severe acute respiratory syndrome coronavirus, VeroE6/TMPRSS2, read-out: EC50 SARS-CoV
# MERS-CoV [5] = assay: microbe, parasite or virus in culture; format: cell-based; settings: Middle East respiratory syndrome-related coronavirus, VeroE6/TMPRSS2, read-out: EC50 MERS-CoV
# HCoV-OC43 = assay: microbe, parasite or virus in culture; format: cell-based; settings: Betacoronavirus 1, OC43, MRC5, read-out: EC50 HCoV-OC43
# HCoV-229E [6] = assay: microbe, parasite or virus in culture; format: cell-based; settings: read-out: EC50 HCoV-229E
# [7] = test system: SARS-CoV-2 Gamma strain (hCoV-19/Japan/TY7-501/2021); parameters: species or system BALB/cAJcl mice; settings: mouse, in vivo
# [8] = pig
# P-gp [9] = target: T1, P-gp (Homo sapiens, UniProt P08183); settings: LLC-PK1
# T1 sequence (P08183 whole entry): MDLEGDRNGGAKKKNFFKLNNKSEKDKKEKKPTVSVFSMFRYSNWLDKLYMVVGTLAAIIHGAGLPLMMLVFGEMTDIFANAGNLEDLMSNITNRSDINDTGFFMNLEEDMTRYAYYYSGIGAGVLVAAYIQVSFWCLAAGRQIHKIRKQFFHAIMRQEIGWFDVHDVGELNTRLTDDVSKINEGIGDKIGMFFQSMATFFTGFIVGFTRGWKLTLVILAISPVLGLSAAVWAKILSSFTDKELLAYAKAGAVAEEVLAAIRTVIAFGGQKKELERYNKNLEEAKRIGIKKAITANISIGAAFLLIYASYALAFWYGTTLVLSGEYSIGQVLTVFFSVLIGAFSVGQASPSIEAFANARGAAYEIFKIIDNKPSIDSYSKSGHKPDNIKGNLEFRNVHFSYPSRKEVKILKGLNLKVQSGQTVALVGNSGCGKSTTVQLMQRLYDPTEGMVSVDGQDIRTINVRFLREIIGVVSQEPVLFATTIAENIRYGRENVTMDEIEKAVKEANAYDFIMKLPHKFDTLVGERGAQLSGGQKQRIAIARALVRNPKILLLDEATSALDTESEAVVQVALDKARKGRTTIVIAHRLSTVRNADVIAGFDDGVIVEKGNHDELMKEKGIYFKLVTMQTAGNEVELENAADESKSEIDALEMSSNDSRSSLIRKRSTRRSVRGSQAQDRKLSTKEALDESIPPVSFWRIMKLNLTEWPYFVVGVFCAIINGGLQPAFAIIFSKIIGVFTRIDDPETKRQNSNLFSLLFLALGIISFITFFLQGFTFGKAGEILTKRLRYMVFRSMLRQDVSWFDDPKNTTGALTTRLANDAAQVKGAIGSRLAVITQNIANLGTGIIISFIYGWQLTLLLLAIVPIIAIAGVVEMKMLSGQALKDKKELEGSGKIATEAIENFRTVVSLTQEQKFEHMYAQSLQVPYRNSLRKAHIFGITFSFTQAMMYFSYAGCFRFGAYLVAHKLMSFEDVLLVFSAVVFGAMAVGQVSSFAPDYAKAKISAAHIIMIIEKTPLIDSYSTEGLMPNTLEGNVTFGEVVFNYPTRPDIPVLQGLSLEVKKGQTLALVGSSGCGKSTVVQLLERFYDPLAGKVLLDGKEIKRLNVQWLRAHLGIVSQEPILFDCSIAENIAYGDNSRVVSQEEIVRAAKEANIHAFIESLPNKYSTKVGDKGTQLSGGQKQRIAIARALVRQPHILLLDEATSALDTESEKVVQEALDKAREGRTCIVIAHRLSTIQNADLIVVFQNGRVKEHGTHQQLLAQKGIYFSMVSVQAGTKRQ
# [10] = in vivo
# in vivo [11] = settings: male, Sprague-Dawley, rat
# in vivo [12] = settings: male, beagle, dog, iv, 0.1 mg/kg
# in vivo [13] = settings: female, cynomolgus monkey, iv, 0.1 mg/kg
# in vitro [14] = settings: both, human, microsomes
# in vitro [15] = settings: male, rat, microsomes
# in vitro [16] = settings: pig, LLC-PK1
# P-gp [17] = target: T1, P-gp; assay: in vitro; settings: LLC-PK1
# in vitro [18] = settings: African green monkey
# [19] = test system: SARS-CoV-2 hCoV-19/Japan/TY/WK-521 strain; settings: read-out: HEK 293T-AT EC50; cited from earlier work
# SARS-CoV [20] = settings: cited from earlier work
# MERS-CoV [21] = settings: cited from earlier work
# HCoV-229E [22] = settings: cited from earlier work
# [23] = human, microsomes, 0.5 h; cited from earlier work
# [24] = rat, microsomes, 0.5 h; cited from earlier work
# [25] = LLC-PK1; cited from earlier work
# P-gp [26] = target: T1, P-gp; settings: LLC-PK1; cited from earlier work
# [27] = Severe acute respiratory syndrome coronavirus 2, VeroE6/TMPRSS2, read-out: EC90, 0% serum
# [28] = Severe acute respiratory syndrome coronavirus 2, VeroE6/TMPRSS2, read-out: EC90, 12.5% serum
# [29] = Severe acute respiratory syndrome coronavirus 2, VeroE6/TMPRSS2, read-out: EC90, 25% serum
smiles,measurement,setting,value
"N#CCn1c(N2CC3(C2)CC(F)(F)C3)c(-c2ccc(F)c(Cl)c2)c(=O)n(-c2cncc(Cl)c2)c1=O [Compound 17, [5-(3-Chloro-4-fluorophenyl)-3-(5-chloropyridin-3-yl)-6-(6,6-difluoro-2-azaspiro[3.3]-heptan-2-yl)-2,4-dioxo-3,4-dihydropyrimidin-1(2H)-yl]-acetonitrile]",EC50,[1],0.00248 µM
same,IC50,Human Caspase 2,> 10 µM
same,IC50,Human Chymotrypsin,> 10 µM
same,IC50,Human Cathepsin B/D/G/L,> 10 µM
same,IC50,Human Thrombin,> 10 µM
same,IC50,HIV-1 Protease,> 10 µM
same,EC50,SARS-CoV-2,0.00221 µM
same,EC90,[2],0.00241 ± 0.00161 µM
same,EC90,"[2]; in Mus musculus, read-out: protein-adjusted EC90 (PA-EC90)",27 nM to 28.1 nM and 0.0141 µg/mL to 0.0147 µg/mL
same,EC90,[3]; [27],0.00166 ± 0.00014 µM
same,EC90,[3]; [28],0.00198 ± 8e-05 µM
same,EC90,[3]; [29],0.00342 ± 0.00055 µM
same,EC90,"[3]; read-out: EC90, 12.5% serum",0.00243 ± 0.00032 µM
same,EC90,"[3]; read-out: EC90, 25% serum",0.00276 ± 0.00066 µM
same,EC50,SARS-CoV [4],0.00661 µM
same,EC50,MERS-CoV [5],0.0573 µM
same,EC50,HCoV-OC43,0.092 µM
same,EC50,HCoV-229E [6],3.57 ± 0.51 µM
same,lung virus titers,[7],reduced lung virus titers in a dose-dependent manner; also recorded: Virus titer reduction was observed; also recorded: appeared to reach maximum efficacy
same,LLC-PK1 P app,[8],6.17 × 10^–6 cm/s
same,P-gp substrate assessment,P-gp [9],P-gp substrates
same,adverse effects,[10],No adverse effects were observed
same,teratogenicity,[10],No teratogenicity was observed
same,clearance,in vivo [11]; iv,6.79 mL/min/kg
same,half-life,in vivo [11]; iv,8.14 h
same,bioavailability,"in vivo [11]; po, 1 umol/kg",100%
same,clearance,in vivo [12],2.52 mL/min/kg
same,half-life,in vivo [12],24.9 h
same,clearance,in vivo [13],11.4 mL/min/kg
same,half-life,in vivo [13],7.02 h
same,remaining at 0.5 h,in vitro [14],99%
same,remaining at 0.5 h,in vitro [15],92%
same,Papp A→B,in vitro [16],6.17 ×10⁻⁶ cm/s
same,Papp B→A,in vitro [16],7.36 ×10⁻⁶ cm/s
same,Papp A→B,P-gp [17],2.48 ×10⁻⁶ cm/s
same,Papp B→A,P-gp [17],22.4 ×10⁻⁶ cm/s
same,CC50,in vitro [18],> 100 µM
Cn1cnc(Cn2c(=O)[nH]/c(=N\c3cc4cn(C)nc4cc3Cl)n(Cc3cc(F)c(F)cc3F)c2=O)n1 [ensitrelvir],EC50,SARS-CoV-2,0.0731 ± 0.0164 µM
same,EC90,[2],0.0601 ± 0.0328 µM
same,EC90,[3]; [27],0.118 ± 0.052 µM
same,EC90,[3]; [28],0.367 ± 0.069 µM
same,EC90,[3]; [29],0.608 ± 0.075 µM
same,EC90,"[3]; Severe acute respiratory syndrome coronavirus 2, VeroE6/TMPRSS2, read-out: EC90, 50% serum",0.838 ± 0.191 µM
same,EC90,"[3]; Severe acute respiratory syndrome coronavirus 2, VeroE6/TMPRSS2, read-out: EC90, 100% (Extrapolated)",1.59 ± 0.33 µM
same,EC90,"[3]; read-out: EC90, 12.5% serum",0.218 ± 0.06 µM
same,EC90,"[3]; read-out: EC90, 25% serum",0.462 ± 0.129 µM
same,EC90,"[3]; read-out: EC90, 50% serum",1.56 ± 0.29 µM
same,EC90,"[3]; read-out: EC90, 100% (Extrapolated)",2.92 ± 0.55 µM
same,EC50,HCoV-OC43,0.142 ± 0.009 µM
same,P-gp substrate assessment,P-gp [9],P-gp substrates
same,EC50,[19],0.027 µM
same,EC50,SARS-CoV [20],0.21 µM
same,EC50,MERS-CoV [21],1.4 µM
same,EC50,HCoV-229E [22],5.5 µM
same,HLM % remained,[23],96/88^25%
same,RLM % remained,[24],96/88^25%
same,Papp Apical to Basolateral,[25],10.3 ± 0.3 ×10-6 cm/sec
same,Papp Basolateral to Apical,[25],11.6 ± 0.3 ×10-6 cm/sec
same,Papp Apical to Basolateral,P-gp [26],2.03 ± 0.07 ×10-6 cm/sec
same,Papp Basolateral to Apical,P-gp [26],30.2 ± 1.8 ×10-6 cm/sec
